Results reported in BigSolDB 2.1.

Cl.N=C(N)N
solubility (mole fraction)
Settings | 278.15 K | 283.15 K | 288.15 K | 293.15 K | 298.15 K | 303.15 K | 308.15 K | 313.15 K | 318.15 K | 323.15 K
in 2-butoxyethanol | 0.104 | 0.111 | 0.126 | 0.138 | 0.153 | 0.169 | 0.185 | 0.201 | 0.216 | 0.236
in 2-ethoxyethanol | 0.252 | 0.263 | 0.275 | 0.284 | 0.296 | 0.308 | 0.321 | 0.334 | 0.349 | 0.362
in 2-methoxyethanol | 0.293 | 0.302 | 0.312 | 0.323 | 0.333 | 0.345 | 0.355 | 0.368 | 0.381 | 0.394
in 2-propoxyethanol | 0.158 | 0.172 | 0.185 | 0.2 | 0.216 | 0.232 | 0.247 | 0.263 | 0.28 | 0.298
in DMAc | 0.265 | 0.283 | 0.302 | 0.321 | 0.34 | 0.358 | 0.376 | 0.394 | 0.415 | 0.434
in DMF | 0.326 | 0.345 | 0.368 | 0.384 | 0.402 | 0.42 | 0.441 | 0.456 | 0.476 | 0.495
in NMP | 0.116 | 0.128 | 0.142 | 0.154 | 0.17 | 0.185 | 0.201 | 0.216 | 0.236 | 0.253
in ethanol | 0.0832 | 0.0916 | 0.1 | 0.108 | 0.117 | 0.128 | 0.139 | 0.152 | 0.163 | 0.172
in isopropanol | 0.0552 | 0.0623 | 0.0699 | 0.0803 | 0.0886 | 0.0991 | 0.11 | 0.122 | 0.135 | 0.149
in methanol | 0.156 | 0.169 | 0.179 | 0.191 | 0.202 | 0.214 | 0.227 | 0.239 | 0.253 | 0.265
in n-propanol | 0.0373 | 0.0447 | 0.0493 | 0.0571 | 0.066 | 0.0733 | 0.083 | 0.0939 | 0.103 | 0.115
